Values quoted from earlier work as cited in patent US7923560B2, “Delivery of immune response modifier compounds” (3M Innovative Properties Company, priority 2003, dated 2011).

What was measured:
TLR 8 = target: T1, TLR 8 (Homo sapiens, UniProt Q9NR97)
T1 construct: expressed in transfected cells
T1 sequence (Q9NR97 27-1041): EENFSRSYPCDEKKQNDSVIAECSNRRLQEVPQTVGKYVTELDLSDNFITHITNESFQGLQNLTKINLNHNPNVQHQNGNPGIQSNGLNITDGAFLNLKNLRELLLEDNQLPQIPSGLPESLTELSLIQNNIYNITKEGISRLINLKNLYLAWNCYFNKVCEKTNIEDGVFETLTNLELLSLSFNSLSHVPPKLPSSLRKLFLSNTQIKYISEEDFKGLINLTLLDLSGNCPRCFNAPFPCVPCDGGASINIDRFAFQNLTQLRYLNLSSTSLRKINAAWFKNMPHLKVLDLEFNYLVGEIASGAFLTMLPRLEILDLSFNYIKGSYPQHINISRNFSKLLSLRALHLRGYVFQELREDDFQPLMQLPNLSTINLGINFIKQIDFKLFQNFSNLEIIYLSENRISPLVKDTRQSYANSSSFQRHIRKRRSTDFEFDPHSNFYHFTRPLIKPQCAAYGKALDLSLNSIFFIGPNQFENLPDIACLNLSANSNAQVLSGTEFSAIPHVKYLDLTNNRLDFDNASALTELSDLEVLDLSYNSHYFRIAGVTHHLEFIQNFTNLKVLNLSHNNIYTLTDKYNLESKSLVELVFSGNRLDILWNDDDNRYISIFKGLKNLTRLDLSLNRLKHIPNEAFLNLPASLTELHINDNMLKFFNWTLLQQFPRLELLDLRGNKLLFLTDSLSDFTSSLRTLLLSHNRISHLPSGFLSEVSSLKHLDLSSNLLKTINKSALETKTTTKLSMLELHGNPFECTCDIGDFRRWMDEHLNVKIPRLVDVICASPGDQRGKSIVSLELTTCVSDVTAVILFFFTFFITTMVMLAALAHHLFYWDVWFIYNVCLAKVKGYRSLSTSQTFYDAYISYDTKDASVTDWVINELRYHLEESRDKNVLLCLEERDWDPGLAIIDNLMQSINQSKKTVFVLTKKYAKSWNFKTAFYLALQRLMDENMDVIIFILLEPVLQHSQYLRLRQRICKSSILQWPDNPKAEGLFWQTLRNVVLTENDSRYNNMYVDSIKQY

TLR 7 = target: T2, TLR 7 (Homo sapiens, UniProt Q9NYK1)
T2 construct: expressed in transfected cells
T2 sequence (Q9NYK1 27-1049): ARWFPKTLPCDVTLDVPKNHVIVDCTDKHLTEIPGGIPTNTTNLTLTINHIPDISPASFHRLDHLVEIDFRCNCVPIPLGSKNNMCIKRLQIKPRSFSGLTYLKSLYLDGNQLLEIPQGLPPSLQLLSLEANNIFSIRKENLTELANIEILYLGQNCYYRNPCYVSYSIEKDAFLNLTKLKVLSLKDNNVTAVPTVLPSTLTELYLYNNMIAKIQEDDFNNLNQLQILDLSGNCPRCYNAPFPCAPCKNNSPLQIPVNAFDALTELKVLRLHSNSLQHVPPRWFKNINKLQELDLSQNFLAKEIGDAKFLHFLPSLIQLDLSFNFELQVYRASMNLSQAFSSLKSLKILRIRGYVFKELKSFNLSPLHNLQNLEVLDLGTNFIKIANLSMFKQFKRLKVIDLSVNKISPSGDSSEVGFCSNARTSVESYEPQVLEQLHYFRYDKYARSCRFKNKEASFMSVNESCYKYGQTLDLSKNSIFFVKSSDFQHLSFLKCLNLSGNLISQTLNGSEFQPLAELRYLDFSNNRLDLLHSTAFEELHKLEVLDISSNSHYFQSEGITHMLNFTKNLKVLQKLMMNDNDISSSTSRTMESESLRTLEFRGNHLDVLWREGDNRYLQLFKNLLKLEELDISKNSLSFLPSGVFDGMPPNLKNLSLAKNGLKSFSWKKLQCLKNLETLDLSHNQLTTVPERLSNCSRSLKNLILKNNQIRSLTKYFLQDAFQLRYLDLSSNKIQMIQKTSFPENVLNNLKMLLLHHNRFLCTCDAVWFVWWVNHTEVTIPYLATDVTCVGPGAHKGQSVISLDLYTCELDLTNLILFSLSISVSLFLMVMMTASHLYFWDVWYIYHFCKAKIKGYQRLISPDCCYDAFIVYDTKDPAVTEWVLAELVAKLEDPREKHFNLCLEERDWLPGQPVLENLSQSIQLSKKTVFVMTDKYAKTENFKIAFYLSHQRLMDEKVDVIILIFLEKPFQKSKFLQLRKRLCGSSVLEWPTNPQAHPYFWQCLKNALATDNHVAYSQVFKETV

[1] = delivered systemically, compared to imiquimod

SMILES | TLR 8 agonist activity (TLR 8) | TLR 7 agonist activity (TLR 7) | CNS effect [1]
CCOCc1nc2c(N)nc3c(c2n1CC(C)(C)O)CCCC3 [4-amino-2-(ethoxymethyl)-α,α-dimethyl-6,7,8,9-tetrahydro-1H-imidazo[4,5-c]quinoline-1-ethanol] | a TLR 7 and TLR 8 agonist | a TLR 7 and TLR 8 agonist | –
CCOCc1nc2c(N)nc3ccccc3c2n1CC(C)(C)O [Resiquimod, 4-amino-2-ethoxymethyl-α,α-dimethyl-1H-imidazo[4,5-c]quinoline-1-ethanol] | combination TLR 7 and TLR 8 agonist | combination TLR 7 and TLR 8 agonist | –
CC(C)(O)Cn1cnc2c(N)nc3ccccc3c21 [4-amino-α,α-dimethyl-1H-imidazo[4,5-c]quinoline-1-ethanol] | not a substantial TLR 8 agonist | predominantly a TLR 7 agonist | much lower CNS effect
